Measured values from the supplement of paper PMC8882468.
± gives the standard deviation of the averaged measurements.

Each molecule was assayed on HCI-017.E2 (organoid from an ER-positive breast cancer xenograft) (assay: CTG-3D luminescence at 96 h relative to day-0 seeding control (ratio to day 0); higher = more growth / less cytotoxicity; PDxO 3D drug screen, 96 h, CTG-3D normalised to day-0 seeding control.). Settings: 0.00025 µM; days in culture: 85.

| Structure (SMILES) | CTG-3D luminescence at 96 h |
| --- | --- |
| C[C@@H]1COCCN1c1cc(C2([S@](C)(=N)=O)CC2)nc(-c2cc[nH]c3nccc2-3)n1 [ceralasertib] | 3.11 |
| CCN1CCN(Cc2ccc(Nc3ncc(F)c(-c4cc(F)c5nc(C)n(C(C)C)c5c4)n3)nc2)CC1 [abemaciclib] | 2.45 |
| NC1(C(=O)N[C@@H](CCO)c2ccc(Cl)cc2)CCN(c2nc[nH]c3nccc2-3)CC1 [capivasertib] | 2.6 |
| CC(C)n1nc(-c2ccc3oc(N)nc3c2)c2c(N)ncnc21 [sapanisertib] | 2.53 |
| O=C(c1ccc(F)c(F)c1Nc1ccc(I)cc1F)N1CC(O)([C@@H]2CCCCN2)C1 [cobimetinib] | 2.34 |
| C[C@H](NC(=O)CCC(F)(F)F)C(=O)N[C@@H]1C(=O)N(CCO)c2ncccc2-c2ccccc21 [crenigacestat] | 2.96 |
| Cc1cc(Nc2ncc(Cl)c(Nc3ccccc3S(=O)(=O)C(C)C)n2)c(OC(C)C)cc1C1CCNCC1 [ceritinib] | 2.49 |
| CS(=O)(=O)c1ccc(C(=O)Nc2ccc(Cl)c(-c3ccccn3)c2)c(Cl)c1 [vismodegib] | 2.32 |
| NC(=O)c1cccc2cn(-c3ccc([C@@H]4CCCNC4)cc3)nc12 [niraparib] | 2.22 |

Same assay, conditions: 0.005 µM

| Structure (SMILES) | CTG-3D luminescence at 96 h |
| --- | --- |
| C[C@@H]1COCCN1c1cc(C2([S@](C)(=N)=O)CC2)nc(-c2cc[nH]c3nccc2-3)n1 [ceralasertib] | 2.17 ± 0.45 |
| CCN1CCN(Cc2ccc(Nc3ncc(F)c(-c4cc(F)c5nc(C)n(C(C)C)c5c4)n3)nc2)CC1 [abemaciclib] | 2.083 ± 0.014 |
| NC1(C(=O)N[C@@H](CCO)c2ccc(Cl)cc2)CCN(c2nc[nH]c3nccc2-3)CC1 [capivasertib] | 2.12 ± 0.47 |
| CC(C)n1nc(-c2ccc3oc(N)nc3c2)c2c(N)ncnc21 [sapanisertib] | 1.703 ± 0.0064 |
| O=C(c1ccc(F)c(F)c1Nc1ccc(I)cc1F)N1CC(O)([C@@H]2CCCCN2)C1 [cobimetinib] | 2.18 ± 0.27 |
| C[C@H](NC(=O)CCC(F)(F)F)C(=O)N[C@@H]1C(=O)N(CCO)c2ncccc2-c2ccccc21 [crenigacestat] | 2.22 ± 0.31 |
| Cc1cc(Nc2ncc(Cl)c(Nc3ccccc3S(=O)(=O)C(C)C)n2)c(OC(C)C)cc1C1CCNCC1 [ceritinib] | 2.23 ± 0.49 |
| CS(=O)(=O)c1ccc(C(=O)Nc2ccc(Cl)c(-c3ccccn3)c2)c(Cl)c1 [vismodegib] | 2.01 ± 0.074 |
| NC(=O)c1cccc2cn(-c3ccc([C@@H]4CCCNC4)cc3)nc12 [niraparib] | 1.89 ± 0.088 |

Same assay, conditions: 0.005 µM; days in culture: 85

| Structure (SMILES) | CTG-3D luminescence at 96 h |
| --- | --- |
| C[C@@H]1COCCN1c1cc(C2([S@](C)(=N)=O)CC2)nc(-c2cc[nH]c3nccc2-3)n1 [ceralasertib] | 2.49 |
| CCN1CCN(Cc2ccc(Nc3ncc(F)c(-c4cc(F)c5nc(C)n(C(C)C)c5c4)n3)nc2)CC1 [abemaciclib] | 2.5 |
| NC1(C(=O)N[C@@H](CCO)c2ccc(Cl)cc2)CCN(c2nc[nH]c3nccc2-3)CC1 [capivasertib] | 2.77 |
| CC(C)n1nc(-c2ccc3oc(N)nc3c2)c2c(N)ncnc21 [sapanisertib] | 2.39 |
| O=C(c1ccc(F)c(F)c1Nc1ccc(I)cc1F)N1CC(O)([C@@H]2CCCCN2)C1 [cobimetinib] | 2.34 |
| C[C@H](NC(=O)CCC(F)(F)F)C(=O)N[C@@H]1C(=O)N(CCO)c2ncccc2-c2ccccc21 [crenigacestat] | 2.49 |
| Cc1cc(Nc2ncc(Cl)c(Nc3ccccc3S(=O)(=O)C(C)C)n2)c(OC(C)C)cc1C1CCNCC1 [ceritinib] | 2.67 |
| CS(=O)(=O)c1ccc(C(=O)Nc2ccc(Cl)c(-c3ccccn3)c2)c(Cl)c1 [vismodegib] | 2.96 |
| NC(=O)c1cccc2cn(-c3ccc([C@@H]4CCCNC4)cc3)nc12 [niraparib] | 2.21 |

Same assay, conditions: 0.1 µM

| Structure (SMILES) | CTG-3D luminescence at 96 h |
| --- | --- |
| C[C@@H]1COCCN1c1cc(C2([S@](C)(=N)=O)CC2)nc(-c2cc[nH]c3nccc2-3)n1 [ceralasertib] | 2.23 ± 0.21 |
| CCN1CCN(Cc2ccc(Nc3ncc(F)c(-c4cc(F)c5nc(C)n(C(C)C)c5c4)n3)nc2)CC1 [abemaciclib] | 2.11 ± 0.035 |
| NC1(C(=O)N[C@@H](CCO)c2ccc(Cl)cc2)CCN(c2nc[nH]c3nccc2-3)CC1 [capivasertib] | 1.61 ± 0.075 |
| CC(C)n1nc(-c2ccc3oc(N)nc3c2)c2c(N)ncnc21 [sapanisertib] | 0.694 ± 0.06 |
| O=C(c1ccc(F)c(F)c1Nc1ccc(I)cc1F)N1CC(O)([C@@H]2CCCCN2)C1 [cobimetinib] | 1.89 ± 0.2 |
| C[C@H](NC(=O)CCC(F)(F)F)C(=O)N[C@@H]1C(=O)N(CCO)c2ncccc2-c2ccccc21 [crenigacestat] | 1.95 ± 0.11 |
| Cc1cc(Nc2ncc(Cl)c(Nc3ccccc3S(=O)(=O)C(C)C)n2)c(OC(C)C)cc1C1CCNCC1 [ceritinib] | 2.22 ± 0.29 |
| CS(=O)(=O)c1ccc(C(=O)Nc2ccc(Cl)c(-c3ccccn3)c2)c(Cl)c1 [vismodegib] | 1.8 ± 0.28 |
| NC(=O)c1cccc2cn(-c3ccc([C@@H]4CCCNC4)cc3)nc12 [niraparib] | 1.61 ± 0.12 |

Same assay, conditions: 0.1 µM; days in culture: 85

| Structure (SMILES) | CTG-3D luminescence at 96 h |
| --- | --- |
| C[C@@H]1COCCN1c1cc(C2([S@](C)(=N)=O)CC2)nc(-c2cc[nH]c3nccc2-3)n1 [ceralasertib] | 2.26 |
| CCN1CCN(Cc2ccc(Nc3ncc(F)c(-c4cc(F)c5nc(C)n(C(C)C)c5c4)n3)nc2)CC1 [abemaciclib] | 2.52 |
| NC1(C(=O)N[C@@H](CCO)c2ccc(Cl)cc2)CCN(c2nc[nH]c3nccc2-3)CC1 [capivasertib] | 2.3 |
| CC(C)n1nc(-c2ccc3oc(N)nc3c2)c2c(N)ncnc21 [sapanisertib] | 0.979 |
| O=C(c1ccc(F)c(F)c1Nc1ccc(I)cc1F)N1CC(O)([C@@H]2CCCCN2)C1 [cobimetinib] | 2.15 |
| C[C@H](NC(=O)CCC(F)(F)F)C(=O)N[C@@H]1C(=O)N(CCO)c2ncccc2-c2ccccc21 [crenigacestat] | 2.05 |
| Cc1cc(Nc2ncc(Cl)c(Nc3ccccc3S(=O)(=O)C(C)C)n2)c(OC(C)C)cc1C1CCNCC1 [ceritinib] | 2.69 |
| CS(=O)(=O)c1ccc(C(=O)Nc2ccc(Cl)c(-c3ccccn3)c2)c(Cl)c1 [vismodegib] | 2.5 |
| NC(=O)c1cccc2cn(-c3ccc([C@@H]4CCCNC4)cc3)nc12 [niraparib] | 2.63 |

Same assay, conditions: 1 µM

| Structure (SMILES) | CTG-3D luminescence at 96 h |
| --- | --- |
| C[C@@H]1COCCN1c1cc(C2([S@](C)(=N)=O)CC2)nc(-c2cc[nH]c3nccc2-3)n1 [ceralasertib] | 2.02 ± 0.17 |
| CCN1CCN(Cc2ccc(Nc3ncc(F)c(-c4cc(F)c5nc(C)n(C(C)C)c5c4)n3)nc2)CC1 [abemaciclib] | 2.01 ± 0.16 |
| NC1(C(=O)N[C@@H](CCO)c2ccc(Cl)cc2)CCN(c2nc[nH]c3nccc2-3)CC1 [capivasertib] | 1.02 ± 0.1 |
| CC(C)n1nc(-c2ccc3oc(N)nc3c2)c2c(N)ncnc21 [sapanisertib] | 0.493 ± 0.01 |
| O=C(c1ccc(F)c(F)c1Nc1ccc(I)cc1F)N1CC(O)([C@@H]2CCCCN2)C1 [cobimetinib] | 1.889 ± 0.0077 |
| C[C@H](NC(=O)CCC(F)(F)F)C(=O)N[C@@H]1C(=O)N(CCO)c2ncccc2-c2ccccc21 [crenigacestat] | 1.876 ± 0.007 |
| Cc1cc(Nc2ncc(Cl)c(Nc3ccccc3S(=O)(=O)C(C)C)n2)c(OC(C)C)cc1C1CCNCC1 [ceritinib] | 1.988 ± 0.013 |
| CS(=O)(=O)c1ccc(C(=O)Nc2ccc(Cl)c(-c3ccccn3)c2)c(Cl)c1 [vismodegib] | 1.65 ± 0.23 |
| NC(=O)c1cccc2cn(-c3ccc([C@@H]4CCCNC4)cc3)nc12 [niraparib] | 1.48 ± 0.024 |

Same assay, conditions: 1 µM; days in culture: 85

| Structure (SMILES) | CTG-3D luminescence at 96 h |
| --- | --- |
| C[C@@H]1COCCN1c1cc(C2([S@](C)(=N)=O)CC2)nc(-c2cc[nH]c3nccc2-3)n1 [ceralasertib] | 2.3 |
| CCN1CCN(Cc2ccc(Nc3ncc(F)c(-c4cc(F)c5nc(C)n(C(C)C)c5c4)n3)nc2)CC1 [abemaciclib] | 2.03 |
| NC1(C(=O)N[C@@H](CCO)c2ccc(Cl)cc2)CCN(c2nc[nH]c3nccc2-3)CC1 [capivasertib] | 1.44 |
| CC(C)n1nc(-c2ccc3oc(N)nc3c2)c2c(N)ncnc21 [sapanisertib] | 0.43 |
| O=C(c1ccc(F)c(F)c1Nc1ccc(I)cc1F)N1CC(O)([C@@H]2CCCCN2)C1 [cobimetinib] | 1.65 |
| C[C@H](NC(=O)CCC(F)(F)F)C(=O)N[C@@H]1C(=O)N(CCO)c2ncccc2-c2ccccc21 [crenigacestat] | 1.89 |
| Cc1cc(Nc2ncc(Cl)c(Nc3ccccc3S(=O)(=O)C(C)C)n2)c(OC(C)C)cc1C1CCNCC1 [ceritinib] | 2.49 |
| CS(=O)(=O)c1ccc(C(=O)Nc2ccc(Cl)c(-c3ccccn3)c2)c(Cl)c1 [vismodegib] | 2.32 |
| NC(=O)c1cccc2cn(-c3ccc([C@@H]4CCCNC4)cc3)nc12 [niraparib] | 2.09 |

Same assay, conditions: 10 µM

| Structure (SMILES) | CTG-3D luminescence at 96 h |
| --- | --- |
| C[C@@H]1COCCN1c1cc(C2([S@](C)(=N)=O)CC2)nc(-c2cc[nH]c3nccc2-3)n1 [ceralasertib] | 1.09 ± 0.1 |
| CCN1CCN(Cc2ccc(Nc3ncc(F)c(-c4cc(F)c5nc(C)n(C(C)C)c5c4)n3)nc2)CC1 [abemaciclib] | 1.5 ± 0.023 |
| NC1(C(=O)N[C@@H](CCO)c2ccc(Cl)cc2)CCN(c2nc[nH]c3nccc2-3)CC1 [capivasertib] | 0.644 ± 0.04 |
| CC(C)n1nc(-c2ccc3oc(N)nc3c2)c2c(N)ncnc21 [sapanisertib] | 0.251 ± 0.056 |
| O=C(c1ccc(F)c(F)c1Nc1ccc(I)cc1F)N1CC(O)([C@@H]2CCCCN2)C1 [cobimetinib] | 1.57 ± 0.049 |
| C[C@H](NC(=O)CCC(F)(F)F)C(=O)N[C@@H]1C(=O)N(CCO)c2ncccc2-c2ccccc21 [crenigacestat] | 1.78 ± 0.18 |
| Cc1cc(Nc2ncc(Cl)c(Nc3ccccc3S(=O)(=O)C(C)C)n2)c(OC(C)C)cc1C1CCNCC1 [ceritinib] | 0.0699 ± 0.078 |
| CS(=O)(=O)c1ccc(C(=O)Nc2ccc(Cl)c(-c3ccccn3)c2)c(Cl)c1 [vismodegib] | 1.67 ± 0.21 |
| NC(=O)c1cccc2cn(-c3ccc([C@@H]4CCCNC4)cc3)nc12 [niraparib] | 1.58 ± 0.36 |

Same assay, conditions: 10 µM; days in culture: 85

| Structure (SMILES) | CTG-3D luminescence at 96 h |
| --- | --- |
| C[C@@H]1COCCN1c1cc(C2([S@](C)(=N)=O)CC2)nc(-c2cc[nH]c3nccc2-3)n1 [ceralasertib] | 1.08 |
| CCN1CCN(Cc2ccc(Nc3ncc(F)c(-c4cc(F)c5nc(C)n(C(C)C)c5c4)n3)nc2)CC1 [abemaciclib] | 1.81 |
| NC1(C(=O)N[C@@H](CCO)c2ccc(Cl)cc2)CCN(c2nc[nH]c3nccc2-3)CC1 [capivasertib] | 0.794 |
| CC(C)n1nc(-c2ccc3oc(N)nc3c2)c2c(N)ncnc21 [sapanisertib] | 0.202 |
